Results as given in patent US20060004004A1, “Novel gamma secretase inhibitors” (Schering Corporation, priority 2004, published 2006).
pIC50: −log10 of the molar value. Values joined by “and” are separate entries in the source; they are usually repeats but may differ in a detail not shown here. Equal values may be shown once. Read-outs that look alike come from different tables or passages of the source.

Target: T1, γ-secretase (Homo sapiens, UniProt P49768)
T1 construct: endogenous in cells; host or cells: membranes of 293 cells (T-REx, clone pTRE.15) with tetracycline-induced SPC99-Lon
Experiment: Gamma secretase activity, membrane assay with Aβ 40 / Aβ 42 ECL immunoassay (Zhang et al.)
Format: biochemical
Conditions: for pIC50: same membrane assay, ranges given as 'about', read-out: IC50 values within the range; for IC50: membranes of 293 cells expressing SPC99-Lon (clone pTRE.15), 37° C., 1 h, read-out: IC50 (μM), γ-secretase inhibitory activity
From the text: Antibodies W02, G2-10, and G2-11 were obtained from Dr. Konrad Beyreuther (University of Heidelberg, Heidelberg, Germany). W02 recognizes residues 5-8 of Aβ peptide, while G2-10 and G2-11 recognize the specific C-terminal structure of Aβ 40 and Aβ 42, respectively. Biotin-4G8 was purchased from Senetec (St. Louis, Mo.). All tissue culture reagents used in this work were from Life Technologies, Inc., unless otherwise specified. Pepstatin A was purchased from Roche Molecular Biochemicals; DFK167 was from Enzyme Systems Products (Livermore, Calif.).
Upon insertion into the membrane, the 17 amino acid signal peptide is processed, leaving an additional leucine at the N-terminus of Aβ. SPC99-lon was cloned into the pcDNA4/TO vector (Invitrogen) and transfected into 293 cells stably transfected with pcDNA6/TR, which is provided in the T-REX system (Invitrogen). The transfected cells were selected in Dulbecco's modified Eagle's media (DMEM) supplemented with 10% fetal bovine serum, 100 units/mL penicillin, 100 µg/mL streptomycin, 250 µg/mL zeocin, and 5 µg/mL blasticidin (Invitrogen). Colonies were screened for Aβ production by inducing C99 expression with […] tetracycline for 16-20 h and analyzing conditioned media with a sandwich immunoassay (see below). One of the clones, designated as pTRE.15, was used in these studies.
C99 expression in cells was induced with […] tetracycline for 20 h. The cells were pretreated with […] 12-myristate 13-acetate (PMA) and […] brefeldin A (BFA) for 5-6 h at 37° C. before harvesting. The cells were washed 3 times with cold phosphate-buffered saline (PBS) and harvested in buffer A containing 20 mM Hepes (pH 7.5), 250 mM sucrose, 50 mM KCl, 2 mM EDTA, 2 mM EGTA, and Complete protease inhibitor tablets (Roche Molecular Biochemicals). The cell pellets were flash-frozen in liquid nitrogen and stored at −70° C. before use.
To make membranes, the cells were resuspended in buffer A and lysed in a nitrogen bomb at 600 psi. The cell lysate was centrifuged at 1500 g for 10 min to remove nuclei and large cell debris. The supernatant was centrifuged at 100000 g for 1 h. The membrane pellet was resuspended in buffer A plus 0.5 M NaCl, and the membranes were collected by centrifugation at 200000 g for 1 h. The salt-washed membrane pellet was washed again in buffer A and centrifuged at 100000 g for 1 h. The final membrane pellet was resuspended in a small volume of buffer A using a Teflon-glass homogenizer. The protein concentration was determined, and membrane aliquots were flash-frozen in liquid nitrogen and stored at −70° C.
γ-Secretase Reaction and Aβ Analysis To measure γ-secretase activity, membranes were incubated at 37° C. for 1 h in […] of buffer containing 20 mM Hepes (pH 7.0) and 2 mM EDTA. At the end of the incubation, Aβ 40 and Aβ 42 were measured using an electrochemiluminescence (ECL)-based immunoassay. Aβ 40 was identified with antibody pairs TAG-G2-10 and biotin-W02, while Aβ 42 was identified with TAG-G2-11 and biotin-4G8. The ECL signal was measured using an ECL-M8 instrument (IGEN International, Inc.) according to the manufacturer's instructions. The data presented were the means of the duplicate or triplicate measurements in each experiment.

Structure (SMILES) | pIC50 | IC50 [µM]
O=C(N1C[C@@H](N2CCCCC2)C[C@@H]1CO)C1([C@H]2CCC[C@@H](c3cc(F)cc(F)c3)N2S(=O)(=O)c2ccc(Cl)cc2)CC1 [Example 17] | 6.70 to 9.00 | –
O=S(=O)(CC1([C@@H]2CCC[C@H](c3cc(F)cc(F)c3)N2S(=O)(=O)c2ccc(Cl)cc2)CC1)N1CCC(N2CCCCC2)CC1 [Example 19] | 6.70 to 9.00 and 7.70 to 9.00 | 0.0119
O=C(C(O)C1([C@H]2CCC[C@@H](c3cc(F)cc(F)c3)N2S(=O)(=O)c2ccc(Cl)cc2)CC1)N1CCC(N2CCCCC2)CC1 (some centres unmarked) [Example 25] | 6.70 to 9.00 and 7.70 to 9.00 | 0.0049
O=C(N1CCN(CCO)CC1)C1([C@H]2CCC[C@@H](c3cc(F)cc(F)c3)N2S(=O)(=O)c2ccc(Cl)cc2)CC1 [Example 10] | 6.70 to 9.00 | –
CCC1(O)CC2CCC(C1)N2C(=O)C(O)C1([C@H]2CCC[C@@H](c3cc(F)cc(F)c3)N2S(=O)(=O)c2ccc(Cl)cc2)CC1 (some centres unmarked) [Example 29] | 6.70 to 9.00 and 7.70 to 9.00 | 0.0068
CCC1(OC)CC2CCC(C1)N2C(=O)C(O)C1([C@H]2CCC[C@@H](c3cc(F)cc(F)c3)N2S(=O)(=O)c2ccc(Cl)cc2)CC1 (some centres unmarked) [Example 28] | 6.70 to 9.00 and 7.70 to 9.00 | –
O=S(=O)(CC1([C@H]2CCC[C@@H](c3cc(F)cc(F)c3)N2S(=O)(=O)c2ccc(Cl)cc2)CC1)N1CCC[C@H]1CO [Example 22] | 6.70 to 9.00 and 7.70 to 9.00 | 0.0164
O=S(=O)(CC1([C@H]2CCC[C@@H](c3cc(F)cc(F)c3)N2S(=O)(=O)c2ccc(Cl)cc2)CC1)N1CCN(CCO)CC1 [Example 23] | 6.70 to 9.00 and 7.70 to 9.00 | 0.0124
O=S(=O)(CC1([C@H]2CCC[C@@H](c3cc(F)cc(F)c3)N2S(=O)(=O)c2ccc(Cl)cc2)CC1)N1CCC(N2CCOCC2)CC1 [Example 24] | 6.70 to 9.00 and 7.70 to 9.00 | 0.0145
O=C(N1CCC(N2CCCCC2)CC1)C1([C@H]2CCC[C@@H](c3cc(F)cc(F)c3)N2S(=O)(=O)c2ccc(Cl)cc2)CC1 [Example 9] | 6.70 to 9.00 | –
C[C@@H]1CN(CCO)CCN1C(=O)C1([C@H]2CCC[C@@H](c3cc(F)cc(F)c3)N2S(=O)(=O)c2ccc(Cl)cc2)CC1 [Example 11] | 6.70 to 9.00 | –

Now from value to molecule:

pIC50 | IC50 [µM] | Structure (SMILES)
7.70 to 9.00 and 6.70 to 9.00 | – | O=C(CC1([C@H]2C[C@@H](O)C[C@@H](C3CC3)N2S(=O)(=O)c2ccc(Cl)cc2)CC1)N1CCC(N2CCCCC2)CC1 [Example 46]
6.70 to 9.00 | – | O=C(CC1([C@H]2C[C@@H](O)C[C@@H](C3CC3)N2S(=O)(=O)c2ccc(Cl)cc2)CC1)N1CC[C@@H](O)C1 [Example 47]
6.70 to 9.00 and 7.70 to 9.00 | 0.0014 | O=C(CC1(C2CCCC(c3cc(F)cc(F)c3)N2S(=O)(=O)c2ccc(Cl)cc2)CC1)N1CCC(N2CCCCC2)CC1 (centres unmarked) [Example 4]
6.70 to 9.00 and 7.70 to 9.00 | 0.0028 | O=C(CC1([C@@H]2CCC[C@H](c3cc(F)cc(F)c3)N2S(=O)(=O)c2ccc(Cl)cc2)CC1)N1CCN(CCO)CC1 [Example 1]
6.70 to 9.00 and 7.70 to 9.00 | 0.0151 | O=S(=O)(CC1([C@H]2CCC[C@@H](c3cc(F)cc(F)c3)N2S(=O)(=O)c2ccc(Cl)cc2)CC1)N1CC[C@H](O)C1 [Example 20]
6.70 to 9.00 | – | O=C(C(O)C1([C@H]2CCC[C@@H](c3cc(F)cc(F)c3)N2S(=O)(=O)c2ccc(Cl)cc2)CC1)N1CCC[C@H]1CO (some centres unmarked) [Example 26]
6.70 to 9.00 | – | O=C(N1CCCC1)C1([C@H]2CCC[C@@H](c3cc(F)cc(F)c3)N2S(=O)(=O)c2ccc(Cl)cc2)CC1 [Example 8]
6.70 to 9.00 and 7.70 to 9.00 | 0.0164 | O=C(CC1(C2CCCC(c3cc(F)cc(F)c3)N2S(=O)(=O)c2ccc(Cl)cc2)CC1)N1CCCCC1 (centres unmarked) [Example 2]
6.70 to 9.00 and 7.70 to 9.00 | 0.0117 | CN1CCN(S(=O)(=O)CC2([C@H]3CCC[C@@H](c4cc(F)cc(F)c4)N3S(=O)(=O)c3ccc(Cl)cc3)CC2)CC1 [Example 21]
7.70 to 9.00 and 6.70 to 9.00 | 0.0048 | CCC1(O)CC2CCC(C1)N2C(=O)CC1([C@H]2C[C@@H](O)C[C@@H](C3CC3)N2S(=O)(=O)c2ccc(Cl)cc2)CC1 (some centres unmarked) [Example 48]
6.70 to 9.00 and 7.70 to 9.00 | 0.0196 | O=C(CC1([C@H]2CCC[C@@H](c3cc(F)cc(F)c3)N2S(=O)(=O)c2ccc(Cl)cc2)CC1)N1CCC[C@H]1CO [Example 5]
6.70 to 9.00 | – | O=C(CC1([C@H]2CCC[C@@H](c3cc(F)cc(F)c3)N2S(=O)(=O)c2ccc(Cl)cc2)CC1)N1CCCC1 [Example 6]
6.70 to 9.00 and 7.70 to 9.00 | 0.0132 | O=C(CC1(C2CCCC(c3cc(F)cc(F)c3)N2S(=O)(=O)c2ccc(Cl)cc2)CC1)N1CC[C@H](O)C1 (some centres unmarked) [Example 3]
6.70 to 9.00 | – | O=C(C(O)C1([C@H]2CCC[C@@H](c3cc(F)cc(F)c3)N2S(=O)(=O)c2ccc(Cl)cc2)CC1)N1CC[C@H](O)C1 (some centres unmarked) [Example 27]
6.70 to 9.00 | – | O=C(N1CCC[C@H]1CO)C1([C@H]2CCC[C@@H](c3cc(F)cc(F)c3)N2S(=O)(=O)c2ccc(Cl)cc2)CC1 [Example 7]
6.70 to 9.00 | – | O=C(CC1([C@H]2CCC[C@@H](C3CC3)N2S(=O)(=O)c2ccc(Cl)cc2)CC1)N1CCN2CCCC2C1 (some centres unmarked) [Example 44]
